Results taken from US20090275574A1, “NOVEL COMPOUNDS-300” (ASTRAZENECA AB, priority 2008, published 2009).
pEC50: −log10 of the molar value.

Columns and labels:
[1] = target: T1, hM3 (human Muscarinic receptor subtype 3) (Homo sapiens, UniProt P20309); experiment: Human M3 calcium mobilization FLIPR assay; type: cell-based; settings: hM3 expressed in CHO cells, intracellular Ca2+ release (FLIPR)
T1 construct: expressed in transfected cells; host or cells: CHO cells (ATCC)
Protocol: (§1) Human M1, rat M1, Human M3 and Human M5 Calcium Mobilization FLIPR™ Assay The compound activity in the present invention (EC50 or IC50) is measured using a 384 plate-based imaging assay that monitors drug induced intracellular Ca^2+ release in whole cells. Activation of hM1 (human Muscarinic receptor subtype 1, gene bank access NM_000738), rM1 (rat Muscarinic receptor subtype 1, gene bank access NM_080773), hM3 (human Muscarinic receptor subtype 3, gene bank access NM_000740NM_000740) and hM5 (human Muscarinic receptor subtype 5, gene bank access NM_0121258), receptors expressed in CHO cells (Chinese hamster ovary cells, ATCC) is quantified in a Molecular Devices FLIPR IITM instrument as an increase in fluorescent signal. Inhibition of hM3 and hM5 by compounds is determined by the decrease in fluorescent signal in response to 2 nM acetylcholine activation. […] Prior to experiment, the cell culture medium is removed from the plates by inversion. […] Plates are incubated at 37° C. for 60 minutes prior to start the experiment. The incubation is terminated by washing the cells four times in assay buffer, leaving a residual 25 μl buffer per well. Cell plates are then transferred to the FLIPR, ready for compound additions. The day of experiment, acetylcholine and compounds are diluted in assay buffer in three-fold concentration range (10 points serial dilution) for addition by FLIPR instrument. For all calcium assays, a baseline reading is taken for 10 seconds followed by the addition of 12.5 μl of compounds, resulting in a total well volume of 37.5 μl. Data is collected every second for 60 pictures and then every 6 seconds for 20 pictures prior to the addition of agonist. For hM3 and hM5, before agonist addition, a second baseline reading is taken for 10 seconds followed by the addition of 12.5 μl of agonist or buffer, producing a final volume of 50 μl. After agonist stimulation, the FLIPR continues to collect data every second for 60 pictures and then every 6 seconds for 20 pictures. The fluorescence emission is read using filter 1 (emission 510-570 nm) by the FLIPR on board CCD camera. Calcium mobilization output data are calculated as the maximal relative fluorescence unit (RFU) minus the minimal value for both compound and agonist reading frame (except for hM1 and rM1 using only the maximal RFU). Data are analyzed using sigmoidal fits of a non-linear curve-fitting program (XLfit version 4.2.2 Excel add-in version 4.2.2 build 18 math 1Q version 2.1.2 build 18). All pEC50 and pIC50 values are reported as arithmetic means±standard error of mean of ‘n’ independent experiments.

cloned human M2 receptor = target: T2, cloned human M2 receptor (Homo sapiens, UniProt P08172); experiment: hM2 receptor GTPγS binding; type: biochemical; settings: CHO membranes expressing hM2, [35S]GTPγS binding
T2 construct: purchased Perkin-Elmer RBHM2M; host or cells: Chinese hamster ovary cells (CHO), membranes
T2 sequence (P08172 1-466): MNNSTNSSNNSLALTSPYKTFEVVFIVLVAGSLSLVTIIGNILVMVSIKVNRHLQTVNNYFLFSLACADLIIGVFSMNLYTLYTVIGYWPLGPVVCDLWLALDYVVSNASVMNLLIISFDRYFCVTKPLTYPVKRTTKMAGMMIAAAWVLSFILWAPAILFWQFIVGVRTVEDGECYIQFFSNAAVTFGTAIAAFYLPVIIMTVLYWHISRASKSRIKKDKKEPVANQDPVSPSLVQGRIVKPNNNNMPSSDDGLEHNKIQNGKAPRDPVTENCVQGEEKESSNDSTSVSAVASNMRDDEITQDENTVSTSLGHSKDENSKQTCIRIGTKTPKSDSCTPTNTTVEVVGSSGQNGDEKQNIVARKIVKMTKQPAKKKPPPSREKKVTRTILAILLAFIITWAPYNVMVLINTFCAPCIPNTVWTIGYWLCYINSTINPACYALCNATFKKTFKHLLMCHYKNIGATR
Protocol: hM2 Receptor GTPγS Binding Membranes produced from Chinese hamster ovary cells (CHO) expressing the cloned human M2 receptor (human Muscarinic receptor subtype 2, gene bank access NM_000739), are obtained from Perkin-Elmer (RBHM2M). The membranes are thawed at 37° C., passed 3 times through a 23-gauge blunt-end needle, diluted in the GTPγS binding buffer (50 mM Hepes, 20 mM NaOH, 100 mM NaCl, 1 mM EDTA, 5 mM MgCl2, pH 7.4, 100 μM DTT). The EC50, IC50 and Emax of the compounds of the invention are evaluated from 10-point dose-response curves (three fold concentration range) done in 60 μl in 384-well non-specific binding surface plate (Corning). Ten microliters from the dose-response curves plate (5× concentration) are transferred to another 384 well plate containing 25 μl of the following: 5 μg of hM2 membranes, 500 μg of Flashblue beads (Perkin-Elmer) and GDP 25 μM. An additional 15 μl containing 3.3× (60,000 dpm) of GTPγ^35S (0.4 nM final) are added to the wells resulting in a total well volume of 50 μl. Basal and maximal stimulated [^35S]GTPγS binding are determined in absence and presence of 30 μM final of acetylcholine agonist. The membranes/beads mix are pre-incubated for 15 minutes at room temperature with 25 μM GDP prior to distribution in plates (12.5 μM final). The reversal of acetylcholine-induced stimulation (2 μM final) of [^35S]GTPγS binding is used to assay the antagonist properties (IC50) of the compounds. The plates are incubated for 60 minutes at room temperature then centrifuged at 400 rpm for 5 minutes. The radioactivity (cpm) is counted in a Trilux (Perkin-Elmer). Values of EC50, IC50 and Emax are obtained using sigmoidal fits of a non-linear curve-fitting program (XLfit version 4.2.2 Excel add-in version 4.2.2 build 18 math 1Q version 2.1.2 build 18) of percent stimulated [^35S]GTPγS binding vs. log(molar ligand). All pEC50 and pIC50 values are reported as arithmetic means±standard error of mean of ‘n’ independent experiments.

[2] = target: T3, hM5 (human Muscarinic receptor subtype 5) (Homo sapiens, UniProt P08912); experiment: Human M5 calcium mobilization FLIPR assay; type: cell-based; settings: hM5 expressed in CHO cells, intracellular Ca2+ release (FLIPR)
T3 construct: expressed in transfected cells; host or cells: CHO cells (ATCC)
T3 sequence (P08912 1-532): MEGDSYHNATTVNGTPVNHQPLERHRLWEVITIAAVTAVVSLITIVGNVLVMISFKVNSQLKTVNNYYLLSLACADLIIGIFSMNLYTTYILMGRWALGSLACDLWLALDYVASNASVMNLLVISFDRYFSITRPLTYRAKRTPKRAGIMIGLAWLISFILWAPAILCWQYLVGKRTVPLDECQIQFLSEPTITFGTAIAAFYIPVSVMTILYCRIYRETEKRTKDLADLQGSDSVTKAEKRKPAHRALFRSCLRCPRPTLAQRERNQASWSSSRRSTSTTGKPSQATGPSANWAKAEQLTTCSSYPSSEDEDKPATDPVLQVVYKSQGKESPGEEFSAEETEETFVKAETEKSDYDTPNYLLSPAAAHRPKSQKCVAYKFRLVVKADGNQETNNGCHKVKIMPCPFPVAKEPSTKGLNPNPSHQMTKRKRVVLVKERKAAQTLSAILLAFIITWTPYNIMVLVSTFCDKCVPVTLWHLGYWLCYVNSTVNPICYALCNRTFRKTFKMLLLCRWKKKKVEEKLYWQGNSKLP
Protocol: as §1

[3] = target: T4, hM1 (human Muscarinic receptor subtype 1) (Homo sapiens, UniProt P11229); experiment: Human M1 calcium mobilization FLIPR assay; type: cell-based; settings: hM1 expressed in CHO cells, intracellular Ca2+ release (FLIPR)
T4 construct: expressed in transfected cells; host or cells: CHO cells (ATCC)
T4 sequence (P11229 1-460): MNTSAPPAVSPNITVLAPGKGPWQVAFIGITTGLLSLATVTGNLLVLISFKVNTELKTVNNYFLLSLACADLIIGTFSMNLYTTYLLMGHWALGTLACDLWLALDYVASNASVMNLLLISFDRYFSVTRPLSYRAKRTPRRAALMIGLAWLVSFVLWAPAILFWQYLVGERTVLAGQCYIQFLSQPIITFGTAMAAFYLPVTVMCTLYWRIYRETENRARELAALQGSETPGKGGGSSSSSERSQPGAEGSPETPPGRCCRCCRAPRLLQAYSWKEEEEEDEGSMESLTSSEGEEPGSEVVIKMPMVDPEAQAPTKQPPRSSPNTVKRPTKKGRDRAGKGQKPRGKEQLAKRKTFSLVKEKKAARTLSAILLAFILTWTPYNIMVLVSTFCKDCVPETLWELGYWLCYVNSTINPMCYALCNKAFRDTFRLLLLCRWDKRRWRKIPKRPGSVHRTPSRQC
Protocol: as §1

[4] = one or more of the biological assays described above (unspecified); settings: tested using one or more of the biological assays described above
Protocol: The compound activity in the present invention (EC50 or IC50) is measured using a 384 plate-based imaging assay that monitors drug induced intracellular Ca^2+ release in whole cells. Activation of hM1 (human Muscarinic receptor subtype 1, gene bank access NM_000738), rM1 (rat Muscarinic receptor subtype 1, gene bank access NM_080773), hM3 (human Muscarinic receptor subtype 3, gene bank access NM_000740NM_000740) and hM5 (human Muscarinic receptor subtype 5, gene bank access NM_0121258), receptors expressed in CHO cells (Chinese hamster ovary cells, ATCC) is quantified in a Molecular Devices FLIPR IITM instrument as an increase in fluorescent signal. Inhibition of hM3 and hM5 by compounds is determined by the decrease in fluorescent signal in response to 2 nM acetylcholine activation.
Membranes produced from Chinese hamster ovary cells (CHO) expressing the cloned human M2 receptor (human Muscarinic receptor subtype 2, gene bank access NM_000739), are obtained from Perkin-Elmer (RBHM2M). […] The EC50, IC50 and Emax of the compounds of the invention are evaluated from 10-point dose-response curves (three fold concentration range) done in 60 μl in 384-well non-specific binding surface plate (Corning). […] Basal and maximal stimulated [^35S]GTPγS binding are determined in absence and presence of 30 μM final of acetylcholine agonist. […] The radioactivity (cpm) is counted in a Trilux (Perkin-Elmer). […]

T1 sequence (P20309 whole entry): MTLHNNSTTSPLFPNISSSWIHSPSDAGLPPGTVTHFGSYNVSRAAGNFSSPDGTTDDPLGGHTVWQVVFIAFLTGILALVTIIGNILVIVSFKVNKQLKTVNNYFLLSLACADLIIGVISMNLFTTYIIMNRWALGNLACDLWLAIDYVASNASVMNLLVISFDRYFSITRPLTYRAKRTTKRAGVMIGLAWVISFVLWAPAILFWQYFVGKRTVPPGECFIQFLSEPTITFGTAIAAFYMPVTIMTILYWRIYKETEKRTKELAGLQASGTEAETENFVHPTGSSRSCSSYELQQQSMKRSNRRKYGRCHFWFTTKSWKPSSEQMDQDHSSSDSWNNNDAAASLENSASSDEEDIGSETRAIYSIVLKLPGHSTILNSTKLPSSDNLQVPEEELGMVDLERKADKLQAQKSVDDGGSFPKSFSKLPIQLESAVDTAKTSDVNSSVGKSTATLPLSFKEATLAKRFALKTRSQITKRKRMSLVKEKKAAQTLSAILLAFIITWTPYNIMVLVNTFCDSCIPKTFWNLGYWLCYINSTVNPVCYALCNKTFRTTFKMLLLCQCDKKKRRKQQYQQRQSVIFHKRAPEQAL

pEC50 [1] | pEC50 (cloned human M2 receptor) | pEC50 [2] | pEC50 [3] | SMILES | efficacy [4]
< 4.40 | < 4.05 | < 4.40 | 7.29 | O=C1CO[C@H]2CCCC[C@@H]2N1C1CCN(C2CCC(COCC3CCC3)CC2)CC1 (single isomer, unassigned) [Example 28] | 
< 4.40 | < 4.05 | < 4.40 | 6.82 | O=C1CO[C@H]2CCCC[C@@H]2N1C1CCN(C2CCC(COCC3CCC3)CC2)CC1 (single isomer, unassigned) [Example 29] | 
 |  |  |  | CC(C)OC1CCC(N2CCC(N3C(=O)NC[C@H]4CCCC[C@@H]43)CC2)CC1 (single isomer, unassigned) [diastereomer 2] | does not show efficacy
< 4.40 | 5.77 | < 4.84 | 7.24 | CC(C)OCC1CCC(N2CCC(N3C(=O)NC[C@H]4CCCC[C@@H]43)CC2)CC1 (single isomer, unassigned) [Example 03] | 
